Results published in US6747050B1, “Isoxazoline derivative and a process for the preparation thereof” (LG Chem Investment Ltd., priority 1999, dated 2004).

Experiments:
[1] = system: IL-1β production in human peripheral lymphocytes; experiment: IL-1β production in LPS-stimulated human peripheral lymphocytes (intracellular Caspase-1 inhibition); assay type: cell-based; settings: Lymphocyte, 10 ng/ml LPS, 12 hours, read-out: CIC50 (IL-1β production)
Experimental: Inhibitory activity for Caspase-1 was determined by screening the effects of the compounds on the IL-1β production in the periphery lymphocytes stimulated with LPS. Briefly, 500,000 cells/ml of human peripheral lymphocytes were treated with the test compounds at various concentrations for 2 hours and then with 10 ng/ml of LPS. After incubating the cells for 12 hours, the supernatant samples from the media were analysed by immunoantibody analysis (Amersham) in which 100 ng/well of human IL-1β antibody is coated (Range: CIC50: 0.1˜10 μM).

primary rat hepatocytes = experiment: Cell viability of TNFα/ActD-treated primary rat hepatocytes (crystal violet); assay type: cell-based; settings: added at different time points
Experimental: (§1) Primary rat hepatocytes were isolated and purified from male Sprague-Dawley rats using a collagenase digestion method. The hepatocytes were purified over 30% Percoll gradient by centrifugation at 1,000×g for 10 min. at 4° C. […] The cells were plated on collagen-coated tissue culture plates at a density of 2×10^5 cells/well in 12-well plates for cell viability analysis or 5×10^6 cells/100 mm dish for enzyme assays. After 18 hrs preculture, the cells were treated with 2,000 units/ml TNFα and 0.2 μg/ml Actinomycin (ActD). Caspase activity and cell viability was determined by colorimetry using a caspase substrate Ac-DEVD-pNA and crystal violet staining method at 8 hrs and 12 hrs, respectively.

[2] = system: caspase-3-like activity (Ac-DEVD-pNA); experiment: Caspase-3-like activity in TNFα/ActD-treated primary rat hepatocytes; assay type: cell-based; settings: 100 μM, 8 hrs
Experimental: as §1

[3] = system: Con A-induced hepatitis in Balb/c mice; experiment: Con A-induced acute hepatitis mice: plasma aminotransferase activity; assay type: in vivo
Experimental: Female 6-week-old Balb/c mice (Charles River Laboratory, Osaka, Japan) were kept at 22° C. and 55% relative humidity in a 12-h day/night rhythm with free access to food and water. Con A was dissolved in pyrogen-free saline to a concentration of 2.5 mg/ml and was injected via the tail vein in an amount of 20 mg/kg based on Con A. The animals were i.p. injected twice with compound 33 dissolved into a vehicle which consists of olive oil and 10% DMSO, or a vehicle alone, at 1 hr before and 4 h after Con A injection Animals were sacrificed by cervical dislocation at 24 hrs after Con A injection to obtain liver and blood samples.
Blood samples obtained at step 1 were collected at 24 h after Con A injection Plasma AST and ALT activity were measured using Autokit (Youngdong Pharmaceutical Co., Seoul, Korea) following manufacturer's instruction.

[4] = system: Recombinant human caspase-1, -2, -3, -4, -6, -7, -8 and -9; experiment: Inhibition of caspase activity in cell free system (chromogenic pNA substrates); assay type: biochemical; settings: 100 μM compound
Experimental: The pharmacological efficacy of the compound according to the present invention was evaluated by the following experiments. Con A was purchased from Boehringer Mannheim GmbH (Mannheim, Germany). Peptide-based substrates of caspases (Ac-YVAD-pNA for caspase-1, Ac-VDVAD for caspase-2, Ac-DEVD-pNA for caspase-3, 7, 8, and 9, Ac-LEVD-pNA for caspase-4, and Ac-VEID-pNA for caspase-6) and peptide-based caspase inhibitors (Ac-DEVD-fmk, z-VAD-CHO) were purchased from Alexis Co. (San Diego, Calif.). Ac-DEVD-CHO and z-DEVD-cmk were purchased from Bachem; Anti Fas antibody was purchased from Oncor (Cat#A8050); WI38 cell was available from ATCC; IFN-gamma was purchased from LG Pharmaceuticals (Korea). All cell culture-media and supplements were purchased from Gibco BRL (Tsuen Wan, Hong Kong) unless mentioned otherwise. […]
Caspase activity was tested by mewing proteolytic cleavage of peptide-based chromogenic substrate by each enzyme. […] Aliquots of the enzyme (2 μl containing catalytic activity of 0.2 absorbance at 405 nm/h) were mixed with 150 μl of 200 μM chromogenic substrate in the presence or absence of 100 μM compound 33 m, 96-well plates. […] The absorbance of enzymatically released pNA was measured discontinuously at 405 nm in a microplate reader for 1 hr. The caspase activity was calculated from initial velocity (meant±SE)(n=4, in which n represents the number of repeated experiment).

PARP cleavage = experiment: Western blotting of PARP cleavage in liver lysate of Con A-treated mice; assay type: in vivo; settings: various doses
Experimental: In this experiment, the cleavage of PARP was identified by the appearance on Western blot analysis of an 85 kda-cleavage product in hepatic cell lysate obtained from mice treated with Con A and various doses of the compound of formula (I).
Freshly harvested livers treated with Con A or PBS together with various doses of compound 33 were rinsed in cold PBS and homogenized into three volumes per weight of cold PBS containing 1% Nonidet P-40, 0.1% SDS, 1 mM PMSF, and protease inhibitor cocktail tablet Complete (Boehnger Mannheim, used according to manufacturer's instruction). The homogenates were incubated on ice for 30 min. Samples were then centrifuged at 16,000×g for 30 min at 4° C. Supernatants were transferred to fresh tubes and centrifuged for additional 30 min. Harvested lysates were precleared by incubating with protein G-sepharose (Pharmacia, Uppsala, Sweden) at 4° C. for overnight, gently shaking. Supernatants were harvested by centrifugation at 1000×g for 30 sec. at 4° C. and separated on 7% SDS-polyacrylamide gel and transferred to nitrocellulose membrane. Blots were blocked for 1 hr at room temperature in PBS containing 5% skimmed milk and 0.1% Tween 20 under gentle shaking. Membranes were then incubated overnight with 1:1000 diluted monoclonal anti-PARP antibody (Pharmingen) under gentle shaking. […]

[5] = system: hepatocytes in ConA-treated mouse liver; experiment: Con A-treated mouse liver: histologic examination and TUNEL detection of apoptosis; assay type: in vivo, mice; settings: 4, 20, 100 mg/kg
Experimental: The present inventors estimated the prevalence of apoptotic cells in the mouse liver to certify the apoptosis-blocking effect of the compound of the present invention specifically in hepatocytes. Mice were treated ConA in the presence or absence of various dosages of compound 33 [A and G: ConA and vehicle treatment, B and H: ConA and compound 33 4 mg/kg treatment, C and I: ConA and compound 33 20 mg/kg treatment, D and J: ConA and compound 33 100 mg/kg treatment] to prepare frozen liver sections. Also, mice were treated with PBS and vehicle (E and K), or PBS and compound 33 100 mg/kg (F and L) to prepare frozen liver sections. Freshly excised mouse liver was immediately immersed in 25% sucrose solution at 4° C. for overnight, then frozen in liquid nitrogen, and cryosectioned into 4 μm.
For histological examination, liver sections were fixed in 1% buffered paraformaldehyde and stained with hematoxilin & eosin (FIGS. 6A to F). To detect apoptotic cells in liver, frozen liver was stained using an ApopTag in situ apoptosis peroxidase detection kit (terminal deoxynucleotidyl transferase-mediated dUTP nick end labeling: TUNEL assay) (Oncor, Gaithersburg, Md.) and DAKO liquid DAB (DAKO, Carpinteria, Calif.)(FIGS. 6G to L). Staining was conducted according to manufacturer's instruction After completion of staining, the samples were observed under an optical microscope. […]

Molecule: CC(C)[C@H](NC(=O)CCc1ccccc1)C1=NOC(Cc2ccccc2)(C(=O)N[C@@H](CC(=O)O)C(=O)COC(=O)c2c(Cl)cccc2Cl)C1 (mixture of isomers) [Compound 32]
- IC50 [1]: 0.1 to 10 µM

Molecule: Z-VAD-fmk
- cell viability with delayed addition, comparison with compound 33MP-Na (primary rat hepatocytes): No different results
- caspase-3-like activity increased by TNFα/ActD (FIG. 15A) [2]: not different

Molecule: CC(C)[C@H](NC(=O)c1cccc2ccccc12)C1=NOC(Cc2ccccc2)(C(=O)N[C@@H](CC(=O)O)C(=O)COC(=O)c2c(Cl)cccc2Cl)C1 (stereo partly drawn) [Compound 33, (3S)-3-{3-[2-Methyl-(1S)-1-(1-naphthalenecarbonylamino)-propyl]-5-phenylmethyl-4,5-dihydro-isoxazole-5-carbonylamino}-4-keto-5-(2,6-dichlorobenzoyloxy)-pentanoic Acid]
- AST and ALT difference to Con A/vehicle group ([3]; 4 mg/kg, second experiment (AST: p=0.2972, ALT: p=0.1378)): did not reached at statistically significant level
- AST and ALT activities compared with ConA/vehicle group ([3]; 20 mg/kg, second experiment (AST: p=0.0174, ALT: p=0.0011)): definitely reduced
- AST activity by the compound itself (no Con A) ([3]; first experiment, not statistically significant (p=0.1033)): slightly increased
- serum AST and ALT activity elevated by ConA (FIG. 4A, B) ([3]; i.p. twice, 1 hr before and 4 h after Con A, blood at 24 h): suppressed the elevated enzyme activities in a dose-dependent manner
- inhibition of recombinant human caspase activity (FIG. 1) [4]: almost completely inhibited all tested caspase activity, only except for caspase 2
- PARP cleavage (85 kDa-cleavage product) caused by Con A (FIG. 7) (PARP cleavage): gradually reduced
- apoptotic lesions in liver [5]: reduced dose-dependently
- cellular histology of liver [5]: gradually recovered
